Reference: PubChem BioAssay (NCI)
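The compound was tested at five concentrations on cells cultured in 96-well plates, with a 48-hour exposure period. The concentration for 50% growth inhibition is given as GI50. The concentration for full growth arrest is given as TGI.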

Legend:
Experiment in all cases: NCI-60 cell line screen, 48 h
BT-549 breast = system: BT-549 breast
HS 578T breast = system: HS 578T breast
PC-3 prostate = system: PC-3 prostate
HCC-2998 colon = system: HCC-2998 colon
NCI/ADR-RES ovarian = system: NCI/ADR-RES ovarian
EKVX NSCLC = system: EKVX NSCLC
SW-620 colon = system: SW-620 colon
SK-MEL-2 melanoma = system: SK-MEL-2 melanoma
CAKI-1 renal = system: CAKI-1 renal
HOP-62 NSCLC = system: HOP-62 NSCLC
ACHN renal = system: ACHN renal
OVCAR-8 ovarian = system: OVCAR-8 ovarian
HOP-92 NSCLC = system: HOP-92 NSCLC
RXF 393 renal = system: RXF 393 renal
HT29 colon = system: HT29 colon
MDA-MB-231 breast = system: MDA-MB-231 breast
SF-295 CNS = system: SF-295 CNS
OVCAR-4 ovarian = system: OVCAR-4 ovarian
U251 CNS = system: U251 CNS
SK-OV-3 ovarian = system: SK-OV-3 ovarian
NCI-H23 lung = system: NCI-H23 lung
IGROV1 ovarian = system: IGROV1 ovarian
UO-31 renal = system: UO-31 renal
M14 melanoma = system: M14 melanoma
SNB-75 CNS = system: SNB-75 CNS
HCT-116 colon = system: HCT-116 colon
CCRF-CEM leukemia = system: CCRF-CEM leukemia
786-0 renal = system: 786-0 renal
A549 NSCLC = system: A549 NSCLC

CSCCC(NC(=O)CNC(=O)C(CC(=O)O)NC(=O)C(NC(=O)C(NC(=O)C(NC(=O)CNC(=O)C(CCC(N)=O)NC(=O)C(CCSC)NC(=O)C(CC(=O)O)NC(=O)C(C)NC(=O)C(C)NC(=O)C(NC(=O)C(CO)NC(=O)C(N)CC(C)C)C(C)O)C(C)C)C(C)C)C(C)O)C(=O)NC(C)C(=O)NC(CO)C(=O)NCC(=O)NC(CC(C)C)C(=O)NC(CC(=O)O)C(=O)NC(CCCCN)C(=O)NC(CC(=O)O)C(=O)NC(Cc1ccc(O)cc1)C(=O)NC(CC(C)C)C(=O)NC(CCCCN)C(=O)N1CCCC1C(=O)NC(CC(=O)O)C(=O)NC(CC(=O)O)C(=O)O (configuration not stated)
TGI (BT-549 breast): > 82.5 µM | GI50 (HS 578T breast): > 82.5 µM | TGI (HS 578T breast): > 82.5 µM | GI50 (PC-3 prostate): > 82.5 µM | TGI (PC-3 prostate): > 82.5 µM | GI50 (HCC-2998 colon): > 82.5 µM | TGI (HCC-2998 colon): > 82.5 µM | GI50 (NCI/ADR-RES ovarian): > 82.5 µM | TGI (NCI/ADR-RES ovarian): > 82.5 µM | GI50 (EKVX NSCLC): > 82.5 µM | TGI (EKVX NSCLC): > 82.5 µM | GI50 (SW-620 colon): > 82.5 µM | TGI (SW-620 colon): > 82.5 µM | GI50 (SK-MEL-2 melanoma): > 82.5 µM | TGI (SK-MEL-2 melanoma): > 82.5 µM | GI50 (CAKI-1 renal): > 82.5 µM | TGI (CAKI-1 renal): > 82.5 µM | GI50 (HOP-62 NSCLC): > 82.5 µM | TGI (HOP-62 NSCLC): > 82.5 µM | GI50 (ACHN renal): > 82.5 µM | TGI (ACHN renal): > 82.5 µM | GI50 (OVCAR-8 ovarian): > 82.5 µM | TGI (OVCAR-8 ovarian): > 82.5 µM | GI50 (HOP-92 NSCLC): > 82.5 µM | TGI (HOP-92 NSCLC): > 82.5 µM | GI50 (RXF 393 renal): > 82.5 µM | TGI (RXF 393 renal): > 82.5 µM | GI50 (HT29 colon): > 82.5 µM | TGI (HT29 colon): > 82.5 µM | GI50 (MDA-MB-231 breast): > 82.5 µM | TGI (MDA-MB-231 breast): > 82.5 µM | GI50 (SF-295 CNS): > 82.5 µM | TGI (SF-295 CNS): > 82.5 µM | GI50 (OVCAR-4 ovarian): > 82.5 µM | TGI (OVCAR-4 ovarian): > 82.5 µM | GI50 (U251 CNS): > 82.5 µM | TGI (U251 CNS): > 82.5 µM | GI50 (SK-OV-3 ovarian): > 82.5 µM | TGI (SK-OV-3 ovarian): > 82.5 µM | GI50 (NCI-H23 lung): > 82.5 µM | TGI (NCI-H23 lung): > 82.5 µM | GI50 (IGROV1 ovarian): > 82.5 µM | TGI (IGROV1 ovarian): > 82.5 µM | GI50 (UO-31 renal): > 82.5 µM | TGI (UO-31 renal): > 82.5 µM | GI50 (M14 melanoma): > 82.5 µM | TGI (M14 melanoma): > 82.5 µM | GI50 (SNB-75 CNS): > 82.5 µM | TGI (SNB-75 CNS): > 82.5 µM | GI50 (HCT-116 colon): > 82.5 µM | TGI (HCT-116 colon): > 82.5 µM | GI50 (CCRF-CEM leukemia): > 82.5 µM | TGI (CCRF-CEM leukemia): > 82.5 µM | GI50 (786-0 renal): > 82.5 µM | TGI (786-0 renal): > 82.5 µM | GI50 (A549 NSCLC): > 82.5 µM | TGI (A549 NSCLC): > 82.5 µM
